Reference: patent publication US20260028354A1, “TETRAHYDRONAPHTHALENE DERIVATIVES AS ESTROGEN RECEPTOR DEGRADERS” (REGENT OF THE UNIVERSITY OF MICHIGAN, priority 2022, published 2026)
Counter-ions that a name gives are not always drawn.

How the values were obtained:
Format in all cases: cell-based
[1] = Western blot analysis for "B" compounds; conditions: read-out: Traditional Western Degradation Potency (DC50)
Method: Western Blot Analysis. Western blot analysis was performed essentially as described previously. The cells treated with indicated compounds were lysed in Radioimmunoprecipitation Assay Protein Lysis and Extraction Buffer (25 mmol/I. Tris.HCl, pH 7.6, 150 mmol/L, NaCl, 1% Nonidet P-40, 1% sodium deoxycholate, and 0.1% sodium dodecyl sulfate) containing proteinase inhibitor cocktail (Roche Diagnostics, Mannheim, Germany). Equal amounts of total protein were electrophoresed through 10% SDS-polyacrylamide gels after determination of protein concentration by BCA assay (Fisher Scientific, Pittsburgh, PA), The separated protein bands were transferred onto PVDF membranes (GE Healthcare Life Sciences, Marlborough, MA) and blotted against different antibodies, as indicated. The blots were scanned, and the band intensities were quantified using GelQuant.NET software provided by biochemlabsolutions.com. The relative mean intensity of target proteins was expressed after normalization to the intensity of glyceraldehyde-3-phosphate dehydrogenase bands.

ER in MCF-7 cells = ER in MCF-7 cells (Homo sapiens (Human), UniProt P03372); assay: In-cell Western (ICW) ER degradation assay in MCF-7 cells; conditions: for DC50: MCF-7, ER degradation, read-out: MCF7 DC50; for Dmax: MCF7, read-out: MCF7 Dmax, MCF-7, maximal ER degradation, 16 hrs treatment
Chain of ER in MCF-7 cells (P03372 whole entry): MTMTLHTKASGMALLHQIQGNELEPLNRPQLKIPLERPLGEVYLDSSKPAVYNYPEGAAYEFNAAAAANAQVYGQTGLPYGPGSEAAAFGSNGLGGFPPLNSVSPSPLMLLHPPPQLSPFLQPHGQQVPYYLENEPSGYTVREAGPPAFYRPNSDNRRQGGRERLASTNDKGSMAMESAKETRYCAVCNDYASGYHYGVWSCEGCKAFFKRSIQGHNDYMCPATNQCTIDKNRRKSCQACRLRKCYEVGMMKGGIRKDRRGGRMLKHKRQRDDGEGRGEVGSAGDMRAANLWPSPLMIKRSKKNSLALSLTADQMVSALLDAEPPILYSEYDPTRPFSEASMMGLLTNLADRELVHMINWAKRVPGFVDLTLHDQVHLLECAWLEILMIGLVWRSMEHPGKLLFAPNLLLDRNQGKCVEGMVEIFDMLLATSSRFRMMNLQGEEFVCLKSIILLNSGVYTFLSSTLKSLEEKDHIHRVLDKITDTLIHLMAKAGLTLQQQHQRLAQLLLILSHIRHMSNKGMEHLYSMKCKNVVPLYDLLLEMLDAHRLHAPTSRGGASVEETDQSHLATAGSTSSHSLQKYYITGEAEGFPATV
Excerpt: (§1) In-cell Western (ICW) assays in MCF-7 and T47D cell lines.
(§2) Day 3: After 16 hrs of compounds treatment, cells were fixed by 4% PFA and permeabilized with elution buffer (0.1% Triton X-100 in 1% PBS Solution). Subsequently, cells were blocked with Intercept (PBS) Blocking Buffer (Li-COR, Odyssey Blocking Buffer), and were stained with ER (1:500, Cell signaling) primary antibody for overnight at cold room.
(§3) Day 4: Remove the buffer, add IRDye 800CW Goat anti-Rabbit IgG Secondary Antibody (1:2000) and CellTag 700 Stain (1:500) in Intercept (PBS) Blocking Buffer. Finally, cell plate is placed in incubator to dry. Image and signal were captured on Odyssey® DLx Imaging System.

ER in T47D cells = ER in T47D cells (Homo sapiens (Human), UniProt P03372); assay: In-cell Western (ICW) ER degradation assay in T47D cells; conditions: for DC50: ER degradation; for Dmax: read-out: T47D Dmax, T47D, maximal ER degradation, 16 hrs treatment
Chain of ER in T47D cells (P03372 whole entry): as above
Excerpt: as §1, §2, §3

Row | Compound | DC50 [1] [nM] | other results
1 | 2-(2,6-dioxopiperidin-3-yl)-6-(1-((1-(4-((1R,2S)-6-hydroxy-2- phenyl-1,2,3,4-tctrahydronaphthalcn-1-yl)phenyl)pipcridin-4- yl)methyl)piperidin-4-yl)-2,3,5,6-tetrahydropyrrolo[3,4- f]isoindole-1,7-dione [Compound B304] | > 100 | –
2 | 2-(2,6-dioxopiperidin-3-yl)-6-((1S,4s)-4-((3-((4-((1R,2S)-6- hydroxy-2-phenyl-1,2,3,4-tetrahydronaphthalen-1- yl)phenyl)amino)azetidin-1-yl)methyl)cyclohexane-1- carbonyl)-6,7-dihydropyrrolo[3,4-f]isoindole-1,3(2H,5H)- dionc [Compound B113] | 10 to 100 | –
3 | 3-(6-((1R,4r)-4-(3-((4-((1R,2S)-6-hydroxy-2-phenyl-1,2,3,4- tetrahydronaphthalen-1-yl)phenyl)amino)azetidin-1- yl)cyclohexane-1-carbonyl)-1-oxo-3,5,6,7- tetrahydropyrrolo[3,4-f]isoindol-2(1H)-yl)pipcridinc-2,6-dionc [Compound B109] | < 10 | –
4 | 3-(6-((1R,4r)-4-(3-((4-((1R,2S)-6-hydroxy-2-phenyl-1,2,3,4- tetrahydronaphthalen-1-yl)phenyl)amino)azetidin-1- yl)cyclohexane-1-carbonyl)-1-oxo-3,5,6,7- tetrahydropyrrolo[3,4-f]isoindol-2(1H)-yl)piperidine-2,6-dione [Compound B115] | > 100 | –
5 | 3-(6-((1S,4s)-4-(3-((4-((1R,2S)-6-hydroxy-2-phenyl-1,2,3,4- tetrahydronaphthalcn-1-yl)phenyl)amino)azctidin-1- yl)cyclohexane-1-carbonyl)-1-oxo-3,5,6,7- tetrahydropyrrolo[3,4-f]isoindol-2(1H)-yl)piperidine-2,6-dione [Compound B110] | > 100 | –
6 | 3-(6-((1S,4s)-4-(3-((4-((1R,2S)-6-hydroxy-2-phenyl-1,2,3,4- tetrahydronaphthalen-1-yl)phenyl)amino)azetidin-1- yl)cyclohexane-1-carbonyl)-1-oxo-3,5,6,7- tetrahydropyrrolo[3,4-f]isoindol-2(1H)-yl)piperidine-2,6-dione [Compound B116] | > 100 | –
7 | O=C1CCC(N2Cc3cc4c(cc3C2=O)CN(CC2CCN(c3ccc([C@@H]5c6ccc(O)cc6CC[C@@H]5c5ccccc5)cc3)CC2)C4)C(=O)N1 (mixture of isomers) [Compound B1, 3-(6-((1-(4-((1R,2S)-6-hydroxy-2-phenyl-1,2,3,4-tetrahydronaphthalen-1-yl)phenyl)piperidin-4-yl)methyl)-1-oxo-3,5,6,7-tetrahydropyrrolo[3,4-f]isoindol-2(1H)-yl)piperidine-2,6-dione] | > 100 | –
8 | O=C1CCC(N2C(=O)c3cc4c(cc3C2=O)CN(CC2CCN(c3ccc([C@@H]5c6ccc(O)cc6CC[C@@H]5c5ccccc5)cc3)CC2)C4)C(=O)N1 (mixture of isomers) [Compound B2, 2-(2,6-dioxopiperidin-3-yl)-6-((1-(4-((1R,2S)-6-hydroxy-2-phenyl-1,2,3,4-tetrahydronaphthalen-1-yl)phenyl)piperidin-4-yl)methyl)-6,7-dihydropyrrolo[3,4-f]isoindole-1,3(2H,5H)-dione] | 10 to 100 | –
9 | O=C1CCC(N2Cc3cc4c(cc3C2=O)CN(C2CCN(CC3CCN(c5ccc([C@@H]6c7ccc(O)cc7CC[C@@H]6c6ccccc6)cc5)CC3)CC2)C4)C(=O)N1 (mixture of isomers) [Compound B3, 3-(6-(1-((1-(4-((1R,2S)-6-hydroxy-2-phenyl-1,2,3,4-tetrahydronaphthalen-1-yl)phenyl)piperidin-4-yl)methyl)piperidin-4-yl)-1-oxo-3,5,6,7-tetrahydropyrrolo[3,4-f]isoindol-2(1H)-yl)piperidine-2,6-dione] | < 10 | –
10 | O=C1CCC(N2C(=O)c3cc4c(cc3C2=O)CN(CC(=O)N2CC3(C2)CN(c2ccc([C@@H]5c6ccc(O)cc6CC[C@@H]5c5ccccc5)cc2)C3)C4)C(=O)N1 (mixture of isomers) [Compound B4, 2-(2,6-dioxopiperidin-3-yl)-6-(2-(6-(4-((1R,2S)-6-hydroxy-2-phenyl-1,2,3,4-tetrahydronaphthalen-1-yl)phenyl)-2,6-diazaspiro[3.3]heptan-2-yl)-2-oxoethyl)-6,7-dihydropyrrolo[3,4-f]isoindole-1,3(2H,5H)-dione] | 10 to 100 | –
11 | O=C1CCC(N2C(=O)c3cc4c(cc3C2=O)CN(C(=O)C2CCN(C3CCN(c5ccc([C@@H]6c7ccc(O)cc7CC[C@@H]6c6ccc(F)cc6)cc5)CC3)CC2)C4)C(=O)N1 (mixture of isomers) [Compound B6, 2-(2,6-dioxopiperidin-3-yl)-6-(1′-(4-((1R,2S)-2-(4-fluorophenyl)-6-hydroxy-1,2,3,4-tetrahydronaphthalen-1-yl)phenyl)-[1,4'-bipiperidine]-4-carbonyl)-6,7-dihydropyrrolo[3,4-f]isoindole-1,3(2H,5H)-dione] | < 10 | –
12 | O=C1CCC(N2C(=O)c3cc4c(cc3C2=O)CN(CC2CCN(C(=O)C3CCN(c5ccc([C@@H]6c7ccc(O)cc7CC[C@@H]6c6ccccc6)cc5)CC3)CC2)C4)C(=O)N1 (mixture of isomers) [Compound B8, 2-(2,6-dioxopiperidin-3-yl)-6-((1-(1-(4-((1R,2S)-6-hydroxy-2-phenyl-1,2,3,4-tetrahydronaphthalen-1-yl)phenyl)piperidine-4-carbonyl)piperidin-4-yl)methyl)-6,7-dihydropyrrolo[3,4-f]isoindole-1,3(2H,5H)-dione] | 10 to 100 | –
13 | O=C1CC[C@H](N2Cc3cc4c(cc3C2=O)OCC42CCN(C[C@@H]3COC4(CCN(c5ccc([C@@H]6c7ccc(O)cc7CC[C@@H]6c6ccccc6)cc5)CC4)C3)CC2)C(=O)N1 [Compound A26, (3S)-3-(1′-((8-(4-((1R,2S)-6-hydroxy-2-phenyl-1,2,3,4-tetrahydronaphthalen-1-yl)-phenyl)-1-oxa-8-azaspiro[4.5]decan-3-yl)methyl)-7-oxo-5,7-dihydro-2H,6H-spiro[furo[2,3-f]isoindole-3,4′-piperidin]-6-yl)piperidine-2,6-dione] | – | DC50 (ER in MCF-7 cells; 16 hrs treatment): 10 to 100 nM; MCF7 Dmax (ER in MCF-7 cells; MCF-7, maximal ER degradation, 16 hrs treatment): C (“C”: 25-50%); DC50 (ER in T47D cells; 16 hrs treatment): 10 to 100 nM; T47D Dmax (ER in T47D cells; maximal ER degradation, 16 hrs treatment): C (“C”: 25-50%)
14 | COc1cc(N2CCC(CN3CCC4(CC3)COc3cc5c(cc34)CN([C@H]3CCC(=O)NC3=O)C5=O)CC2)ccc1[C@H]1c2ccc(O)cc2CC[C@H]1c1ccccc1 [Compound A38, (R)-3-(1′-((1-(4-((1S,2S)-6-hydroxy-2-phenyl-1,2,3,4-tetrahydronaphthalen-1-yl)-3-methoxyphenyl)piperidin-4-yl)methyl)-7-oxo-5,7-dihydro-2H,6H-spiro[furo[2,3-f]iso-indole-3,4′-piperidin]-6-yl)-piperidine-2,6-dione formate] | – | Dmax (ER in MCF-7 cells): 25 to 50%; DC50 (ER in MCF-7 cells; 16 hrs treatment): 10 to 100 nM; DC50 (ER in T47D cells; 16 hrs treatment): 1 to 10 nM; Dmax (ER in T47D cells): 25 to 50%
15 | COc1cc(N2CCC(CN3CCC4(CC3)COc3cc5c(cc34)CN([C@H]3CCC(=O)NC3=O)C5=O)CC2)c(F)cc1[C@@H]1c2ccc(O)cc2CC[C@@H]1c1ccccc1 [Compound A122, (S)-3-(1′-((1-(2-fluoro-4-((1S,2S)-6-hydroxy-2-phenyl-1,2,3,4-tetrahydronaphthalen-1-yl)-5-methoxyphenyl)piperidin-4-yl)methyl)-7-oxo-5,7-dihydro-2H,6H-spiro[furo[2,3-f]isoindole-3,4′-piperidin]-6-yl)piperidine-2,6-dione] | – | Dmax (ER in MCF-7 cells): 50 to 75%; DC50 (ER in MCF-7 cells; 16 hrs treatment): < 1 nM; DC50 (ER in T47D cells; 16 hrs treatment): < 1 nM; Dmax (ER in T47D cells): 50 to 75%
